# From patent US20260022347A1, “TREATMENT AGENT FOR LUNG ADENOCARCINOMAS” (KEIO UNIVERSITY, priority 2022, published 2026)
# Entries after “also recorded” stand apart in the source; their conditions may differ.
# Legend:
# [1] = test system: NKX2-1-negative lung adenocarcinoma organoid strains (KOR189, KOR134); assay: Growth of NKX2-1-negative lung adenocarcinoma organoids cultured with C59 (organoid area, micrographs); type: cell-based, human
# From the text: Porcupine (PORCN) is an acyl transferase localized to the endoplasmic reticulum which performs palmitoylation of Wnt protein. In this experimental example, the therapeutic effect of NKX2-1-negative lung adenocarcinoma was examined using C59 (CAS No. 1243243-89-1), a Porcupine inhibitor.
# In addition, the number in the upper left corner of each image indicates the percentage of an area occupied by organoids cultured under each condition when an area occupied by organoids cultured in the absence of Wnt-3A is 1.
# [2] = test system: Wnt target genes LGR5 and AXIN2; assay: Quantitative RT-PCR of Wnt target genes LGR5 and AXIN2 in organoids cultured with C59; type: cell-based, human
# From the text: In FIG. 10, the relative values of the expression levels of each gene with respect to the expression level of the GAPDH gene are shown as relative values, with the expression level in the absence of Wnt-3A (−Wnt) set to 1.
# [3] = test system: Wnt-dependent (NKX2-1 negative) lung adenocarcinoma organoids, KOR80 and KOR97; assay: Tumor area of GFP-labeled lung adenocarcinoma organoids transplanted under the renal capsule of immunodeficient mice; type: in vivo; settings: 50 mg/kg C59 orally twice a day, 10 days after transplantation and day 30 to 40; kidneys excised day 40; versus vehicle
# From the text: C59 (CAS No. 1243243-89-1) was used to examine the therapeutic effect of NKX2-1-negative lung adenocarcinoma in vivo.
# FIG. 11 is a schematic view showing a schedule of this experiment. GFP-labeled lung adenocarcinoma organoids were transplanted under the renal capsule of immunodeficient mice. As the lung adenocarcinoma organoids, Wnt-dependent (NKX2-1 negative) lung adenocarcinoma organoids, KOR80 and KOR97, and Wnt-independent (NKX2-1-positive) lung adenocarcinoma organoids, KOR20 and KOR98, were used.
# For 10 days after transplantation and from day 30 to day 40 after transplantation, 50 mg/kg of C59 or vehicle was administered orally twice a day. Subsequently, the mice were euthanized on day 40 after transplantation, and their kidneys were excised and observed. The tumor area was measured as the area of a GFP-positive region.
# In addition, “vehicle” indicates the result of a control given vehicle, and “C59” indicates the result obtained by administering C59. In addition, in FIG. 13, “*” indicates a significant difference at p<0.05, “**” indicates a significant difference at p<0.01, and “N.S.” indicates no significant difference.
# [4] = presence of Wnt-3A and C59 (+Wnt+C59)
smiles,measurement,setting,value
Cc1cc(-c2ccc(CC(=O)Nc3ccc(-c4cccnc4)cc3)cc2)ccn1 [C59],growth of NKX2-1-negative lung adenocarcinoma organoids,"[1]; absence of Wnt-3A, presence of C59 (-Wnt+C59), KOR189, KOR134",growth inhibition; also recorded: inhibited the growth
same,growth of NKX2-1-negative lung adenocarcinoma organoids after addition of exogenous Wnt-3A to C59 treatment,[1]; [4],counteracted the effect of the C59 treatment
same,"expression levels of Wnt target genes (LGR5, AXIN2)","[2]; -Wnt+C59 relative to -Wnt, normalised to GAPDH, KOR189, KOR134, KOR97",reduced the expression levels
same,expression levels of Wnt target genes after addition of exogenous Wnt-3A to C59 treatment,[2]; [4],restoring the expression levels
same,tumor area (GFP-positive region),[3],significantly reduced the tumor area
